# Results published in ChEMBL document CHEMBL3232814, “Synthesis and anticancer structure activity relationship investigation of cationic anthraquinone analogs” (2014).
# Assays:
# Staphylococcus aureus = assay: Antimicrobial activity against Staphylococcus aureus ATCC 25923 after 12 to 18 hrs by 2-fold serial dilution method; assay type: functional
# [1] = tested on: NCI-60 human cancer cell line panel (Homo sapiens); assay: Anticancer activity against NCI 60 human cancer cell lines assessed as mean cell growth in single dose assay
# U-251 = assay: Growth inhibition of human U251 cells; assay type: functional
# HT-29 = assay: Growth inhibition of human HT-29 cells; assay type: functional
# [2] = Growth inhibition of human UACC62 cells; assay type: functional; conditions: for GI50: UACC-62; for CC50: UACC-62, read-out: LC50 (the source's name)
# NCI-H226 = assay: Growth inhibition of human NCI-H226 cells; assay type: functional; conditions: for CC50: read-out: LC50 (the source's name)
# A549 = assay: Growth inhibition of human A549 cells; assay type: functional; conditions: for CC50: read-out: LC50 (the source's name)
# SNB-19 = assay: Growth inhibition of human SNB19 cells; assay type: functional
# NCI-H522 = assay: Growth inhibition of human NCI-H522 cells; assay type: functional; conditions: for CC50: read-out: LC50 (the source's name)
# M14 = assay: Growth inhibition of human M14 cells; assay type: functional; conditions: for CC50: read-out: LC50 (the source's name)
# NCI-H23 = assay: Growth inhibition of human NCI-H23 cells; assay type: functional; conditions: for CC50: read-out: LC50 (the source's name)
# HCT-116 = assay: Growth inhibition of human HCT116 cells; assay type: functional; conditions: for CC50: read-out: LC50 (the source's name)
# SK-MEL-28 = assay: Growth inhibition of human SK-MEL-28 cells; assay type: functional; conditions: for CC50: read-out: LC50 (the source's name)
# [3] = Growth inhibition of human NCI60 cells assessed as cell growth; assay type: functional; design: concentration or dose not given beside the values
# MDA-MB-435 = assay: Growth inhibition of human MDA-MB-435 cells; assay type: functional; conditions: for CC50: read-out: LC50 (the source's name)
# Malme-3M = assay: Growth inhibition of human MALME-3M cells; assay type: functional; conditions: for CC50: read-out: LC50 (the source's name)
# SW-620 = assay: Growth inhibition of human SW620 cells; assay type: functional; conditions: for CC50: read-out: LC50 (the source's name)
# [4] = Growth inhibition of human UACC257 cells; assay type: functional; conditions: for GI50: UACC-257; for CC50: UACC-257, read-out: LC50 (the source's name)
# SF-268 = assay: Growth inhibition of human SF268 cells; assay type: functional; conditions: for CC50: read-out: LC50 (the source's name)
# [5] = Growth inhibition of human HOP92 cells; assay type: functional; conditions: for GI50: HOP-92; for CC50: HOP-92, read-out: LC50 (the source's name)
# [6] = Growth inhibition of human SF539 cells; assay type: functional; conditions: for GI50: SF-539; for CC50: SF-539, read-out: LC50 (the source's name)
# [7] = Growth inhibition of human HCT15 cells; assay type: functional; conditions: for GI50: HCT-15; for CC50: HCT-15, read-out: LC50 (the source's name)
# [8] = Growth inhibition of human LOXIMVI cells; assay type: functional; conditions: LOX IMVI; for CC50: read-out: LC50 (the source's name)
# KM12 = assay: Growth inhibition of human KM12 cells; assay type: functional; conditions: for CC50: read-out: LC50 (the source's name)
# SNB-75 = assay: Growth inhibition of human SNB75 cells; assay type: functional; conditions: for CC50: read-out: LC50 (the source's name)
# HOP-62 = assay: Growth inhibition of human HOP62 cells; assay type: functional; conditions: for CC50: read-out: LC50 (the source's name)
# COLO 205 = assay: Growth inhibition of human COLO205 cells; assay type: functional; conditions: for CC50: read-out: LC50 (the source's name)
# [9] = Growth inhibition of human HCC2998 cells; assay type: functional; conditions: for GI50: HCC 2998; for CC50: HCC 2998, read-out: LC50 (the source's name)
# SK-MEL-5 = assay: Growth inhibition of human SK-MEL-5 cells; assay type: functional
# SK-MEL-2 = assay: Growth inhibition of human SK-MEL-2 cells; assay type: functional; conditions: for CC50: read-out: LC50 (the source's name)
# [10] = Growth inhibition of human SF295 cells; assay type: functional; conditions: SF-295
# NCI-H460 = assay: Growth inhibition of human NCI-H460 cells; assay type: functional; conditions: for CC50: read-out: LC50 (the source's name)
# [11] = Growth inhibition of human EKVX cells; assay type: functional; conditions: for CC50: read-out: LC50 (the source's name)
# NCI-H322M = assay: Growth inhibition of human NCI-H322M cells; assay type: functional
smiles,measurement,setting,value
Cn1n[n+](C)c2c1C(=O)c1ccccc1C2=O.[Cl-],MIC,Staphylococcus aureus,2 µg/mL
same,Activity,[1],-46%
CCCCCCCCn1n[n+](C)c2c1C(=O)c1ccccc1C2=O.[Cl-],MIC,Staphylococcus aureus,0.032 µg/mL
same,Activity,[1],44.8%
C[n+]1nn(Cc2ccccc2)c2c1C(=O)c1ccccc1C2=O.[Cl-],MIC,Staphylococcus aureus,2 µg/mL
same,Activity,[1],-37.9%
C[n+]1nn(-c2ccccc2)c2c1C(=O)c1ccccc1C2=O.[Cl-],GI50,U-251,1260 nM
same,LC50,U-251,4330 nM
same,GI50,HT-29,400 nM
same,LC50,HT-29,> 100000 nM
same,GI50,[2],1090 nM
same,CC50,[2],5230 nM
same,MIC,Staphylococcus aureus,8 µg/mL
same,CC50,NCI-H226,5300 nM
same,GI50,A549,350 nM
same,CC50,A549,5460 nM
same,GI50,SNB-19,1070 nM
same,LC50,SNB-19,4340 nM
same,GI50,NCI-H522,11500 nM
same,CC50,NCI-H522,7740 nM
same,GI50,M14,200 nM
same,CC50,M14,550 nM
same,GI50,NCI-H23,980 nM
same,CC50,NCI-H23,6540 nM
same,GI50,HCT-116,320 nM
same,CC50,HCT-116,1500 nM
same,GI50,SK-MEL-28,1190 nM
same,CC50,SK-MEL-28,6470 nM
same,Activity,[3],-10.18%
same,GI50,MDA-MB-435,200 nM
same,CC50,MDA-MB-435,580 nM
same,GI50,Malme-3M,210 nM
same,CC50,Malme-3M,650 nM
same,GI50,SW-620,550 nM
same,CC50,SW-620,3840 nM
same,GI50,[4],1700 nM
same,CC50,[4],4490 nM
same,GI50,SF-268,1640 nM
same,CC50,SF-268,> 100000 nM
same,GI50,[5],4170 nM
same,CC50,[5],9150 nM
same,GI50,[6],1090 nM
same,CC50,[6],4720 nM
same,GI50,[7],1290 nM
same,CC50,[7],6370 nM
same,GI50,[8],1160 nM
same,CC50,[8],5550 nM
same,GI50,KM12,820 nM
same,CC50,KM12,9300 nM
same,GI50,SNB-75,640 nM
same,CC50,SNB-75,5870 nM
same,GI50,HOP-62,760 nM
same,CC50,HOP-62,5570 nM
same,GI50,COLO 205,190 nM
same,CC50,COLO 205,620 nM
same,GI50,[9],340 nM
same,CC50,[9],3690 nM
same,GI50,SK-MEL-5,180 nM
same,LC50 (lethal concentration 50),SK-MEL-5,550 nM
same,GI50,SK-MEL-2,2180 nM
same,CC50,SK-MEL-2,6440 nM
same,GI50,[10],540 nM
same,LC50 (concentration killing 50% of cells),[10],4970 nM
same,GI50,NCI-H460,300 nM
same,CC50,NCI-H460,4230 nM
same,GI50,[11],1890 nM
same,CC50,[11],12600 nM
COc1ccc(-n2n[n+](C)c3c2C(=O)c2ccccc2C3=O)cc1.O=S(=O)([O-])C(F)(F)F,GI50,U-251,1160 nM
same,LC50,U-251,5770 nM
same,GI50,HT-29,380 nM
same,LC50,HT-29,> 100000 nM
same,GI50,[2],1010 nM
same,CC50,[2],6160 nM
same,MIC,Staphylococcus aureus,4 µg/mL
same,GI50,A549,330 nM
same,CC50,A549,> 100000 nM
same,GI50,SNB-19,1010 nM
same,LC50,SNB-19,4940 nM
same,GI50,NCI-H522,2050 nM
same,CC50,NCI-H522,18200 nM
same,GI50,M14,210 nM
same,CC50,M14,880 nM
same,GI50,NCI-H23,1050 nM
same,CC50,NCI-H23,> 100000 nM
same,GI50,HCT-116,370 nM
same,CC50,HCT-116,> 100000 nM
same,GI50,SK-MEL-28,1130 nM
same,CC50,SK-MEL-28,6520 nM
same,Activity,[3],-24.7%
same,GI50,MDA-MB-435,190 nM
same,CC50,MDA-MB-435,680 nM
same,GI50,Malme-3M,240 nM
same,CC50,Malme-3M,2110 nM
same,GI50,SW-620,380 nM
same,CC50,SW-620,5330 nM
same,GI50,[4],1450 nM
same,CC50,[4],5520 nM
same,GI50,SF-268,1720 nM
same,CC50,SF-268,> 100000 nM
same,GI50,[5],3470 nM
same,CC50,[5],> 100000 nM
same,GI50,[6],1280 nM
same,CC50,[6],5600 nM
same,GI50,[7],1230 nM
same,CC50,[7],7170 nM
same,GI50,[8],1240 nM
same,GI50,KM12,970 nM
same,CC50,KM12,6240 nM
same,GI50,SNB-75,1250 nM
same,CC50,SNB-75,5150 nM
same,GI50,HOP-62,980 nM
same,CC50,HOP-62,5140 nM
same,GI50,COLO 205,230 nM
same,CC50,COLO 205,960 nM
same,GI50,[9],450 nM
same,CC50,[9],4720 nM
same,GI50,SK-MEL-5,160 nM
same,LC50 (lethal concentration 50),SK-MEL-5,610 nM
same,GI50,SK-MEL-2,2050 nM
same,CC50,SK-MEL-2,> 100000 nM
same,GI50,[10],630 nM
same,LC50 (concentration killing 50% of cells),[10],5250 nM
same,GI50,NCI-H460,300 nM
same,CC50,NCI-H460,6320 nM
same,GI50,[11],2420 nM
same,CC50,[11],33000 nM
Cc1ccc(-n2n[n+](C)c3c2C(=O)c2ccccc2C3=O)cc1.O=S(=O)([O-])C(F)(F)F,GI50,U-251,2430 nM
same,LC50,U-251,31800 nM
same,GI50,HT-29,2100 nM
same,LC50,HT-29,> 100000 nM
same,GI50,[2],1650 nM
same,CC50,[2],6380 nM
same,MIC,Staphylococcus aureus,4 µg/mL
same,GI50,NCI-H226,2930 nM
same,CC50,NCI-H226,36100 nM
same,GI50,A549,1110 nM
same,CC50,A549,10000 nM
same,GI50,SNB-19,1390 nM
same,LC50,SNB-19,5480 nM
same,GI50,NCI-H522,8140 nM
same,CC50,NCI-H522,60000 nM
same,GI50,M14,260 nM
same,CC50,M14,3570 nM
same,GI50,NCI-H23,650 nM
same,CC50,NCI-H23,6070 nM
same,GI50,HCT-116,1550 nM
same,CC50,HCT-116,7920 nM
same,GI50,SK-MEL-28,2650 nM
same,CC50,SK-MEL-28,36500 nM
same,Activity,[3],11.53%
same,GI50,MDA-MB-435,170 nM
same,CC50,MDA-MB-435,600 nM
same,GI50,Malme-3M,320 nM
same,CC50,Malme-3M,13000 nM
same,GI50,SW-620,1760 nM
same,CC50,SW-620,19200 nM
same,GI50,[4],1850 nM
same,CC50,[4],17700 nM
same,GI50,SF-268,3140 nM
same,CC50,SF-268,4430 nM
same,GI50,[5],420 nM
same,CC50,[5],46800 nM
same,GI50,[6],1970 nM
same,CC50,[6],9890 nM
same,GI50,[7],2440 nM
same,CC50,[7],41200 nM
same,GI50,[8],1800 nM
same,CC50,[8],23000 nM
same,GI50,KM12,1380 nM
same,CC50,KM12,13900 nM
same,GI50,SNB-75,2090 nM
same,CC50,SNB-75,8910 nM
same,GI50,HOP-62,2160 nM
same,CC50,HOP-62,17800 nM
same,GI50,COLO 205,430 nM
same,CC50,COLO 205,4430 nM
same,GI50,[9],1130 nM
same,CC50,[9],5400 nM
same,GI50,SK-MEL-2,2170 nM
same,CC50,SK-MEL-2,41100 nM
same,GI50,[10],1040 nM
same,LC50 (concentration killing 50% of cells),[10],5400 nM
same,GI50,NCI-H322M,880 nM
same,CC50,NCI-H322M; read-out: LC50 (the source's name),5380 nM
same,GI50,NCI-H460,330 nM
same,CC50,NCI-H460,6130 nM
same,GI50,[11],4160 nM
same,CC50,[11],46800 nM
